# Test system: HT-29
# Test: Inhibition of Wnt pathway in human HT29 cells after 24 hrs by TCF-driven luciferase reporter gene assay
# Assay type: cell-based
# Conditions: HT-29, 24 h
row,SMILES,IC50 [nM]
1,O=C(Nc1ccccc1F)C1CCN(c2ccnc3nsnc23)CC1,< 5000
2,O=C(Nc1ccc(C(F)(F)F)cn1)C1CCN(c2ccnc3nsnc23)CC1,< 50
3,Cc1ccccc1CNC(=O)C1CCN(c2ccnc3nsnc23)CC1,< 100
4,c1ccc(N2C[C@@H]3C[C@H]2CN3c2ccnc3nsnc23)cc1,< 50
5,O=C(Nc1cc2ccccc2cn1)C1CCN(c2ccnc3nsnc23)CC1,< 500
6,c1ccc(N2C[C@@H]3C[C@H]2CN3c2ncnc3nsnc23)nc1,< 1000

# From ChEMBL document CHEMBL3352081, “Wnt/β-Catenin Signaling Pathway Inhibitors: A Promising Cancer Therapy” (ACS Med Chem Lett, 2014)
